Experimental data reported in PubChem BioAssay AID256 (DTP/NCI, 2004).
“And” between values parts separate entries of the source, which are not always exact repeats. Identical values can stand only once. Toxic doses and inconclusive results are not listed. How the source made its calls: active means survival T/C of 150% or more; inactive means T/C below 125% in these data.

Test system: CD2F1 mice, L1210 leukemia ip, survival T/C
Test: NCI In Vivo Anticancer Drug Screen. Data for tumor model L1210 Leukemia (intraperitoneal) in CD2F1 (CDF1) mice
Details: higher = longer survival
Outline: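 Antitumor effect is scored in animals hosting a serially transplanted tumor. Values compare compound-dosed animals against vehicle-only controls as a simple quotient.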

[1] = endpoint: mean survival time, dose: 50.0 mg/kg/injection, schedule: Q01DX009 (ip), vehicle: saline with Tween-80
[2] = endpoint: mean survival time, dose: 100.0 mg/kg/injection, schedule: Q01DX009 (ip), vehicle: saline with Tween-80
[3] = endpoint: mean survival time, dose: 200.0 mg/kg/injection, schedule: Q01DX009 (ip), vehicle: saline with Tween-80
[4] = endpoint: mean survival time, dose: 50.0 mg/kg/injection, schedule: Q01DX009 (ip), vehicle: other
[5] = endpoint: mean survival time, dose: 100.0 mg/kg/injection, schedule: Q01DX009 (ip), vehicle: other
[6] = endpoint: mean survival time, dose: 200.0 mg/kg/injection, schedule: Q01DX009 (ip), vehicle: other
[7] = endpoint: mean survival time, dose: 100.0 mg/kg/injection, schedule: Q01DX001 (ip), vehicle: saline with Tween-80
[8] = endpoint: mean survival time, dose: 100.0 mg/kg/injection, schedule: Q04DX002 (ip), vehicle: saline with Tween-80
[9] = endpoint: mean survival time, dose: 200.0 mg/kg/injection, schedule: Q01DX001 (ip), vehicle: saline with Tween-80
[10] = endpoint: mean survival time, dose: 200.0 mg/kg/injection, schedule: Q04DX002 (ip), vehicle: saline with Tween-80
[11] = endpoint: mean survival time, dose: 400.0 mg/kg/injection, schedule: Q01DX001 (ip), vehicle: saline with Tween-80
[12] = endpoint: mean survival time, dose: 100.0 mg/kg/injection, schedule: Q04DX003 (ip), vehicle: saline
[13] = endpoint: mean survival time, dose: 200.0 mg/kg/injection, schedule: Q04DX003 (ip), vehicle: saline

Measured: T/C

CC(=O)Nc1ccc(/C=N/NC(=O)CNC(=O)NCc2ccco2)cc1
inactive: [1] 96 % of control | [2] 92 % of control | [3] 94 % of control

C=C(C)[C@@H]1CCc2c(O)c(O)c(=O)cc(C)c2C1
inactive: endpoint: mean survival time, dose: 3.12 mg/kg/injection, schedule: Q01DX009 (ip), vehicle: saline with Tween-80 89 % of control | endpoint: mean survival time, dose: 6.25 mg/kg/injection, schedule: Q01DX009 (ip), vehicle: saline with Tween-80 96 % of control | endpoint: mean survival time, dose: 12.5 mg/kg/injection, schedule: Q01DX009 (ip), vehicle: saline with Tween-80 93 % of control | endpoint: mean survival time, dose: 25.0 mg/kg/injection, schedule: Q01DX009 (ip), vehicle: saline with Tween-80 95 % of control | [1] 106 % of control | [2] 108 % of control

CC(=O)OC1OC(CS[As](C)C)C(OC(C)=O)C(OC(C)=O)C1OC(C)=O (stereo not given)
inactive: [4] 96 % of control | [5] 108 % of control | [6] 93 % of control

CC(=O)NNC(=O)c1ccc(N(C)C)cc1
inactive: endpoint: mean survival time, dose: 12.5 mg/kg/injection, schedule: Q01DX009 (ip), vehicle: other 92 % of control | endpoint: mean survival time, dose: 25.0 mg/kg/injection, schedule: Q01DX009 (ip), vehicle: other 88 % of control | [4] 88 % of control | [5] 92 % of control | [6] 92 % of control

O=C(C[n+]1ccc2ccccc2c1)c1ccccc1
inactive: endpoint: mean survival time, dose: 25.0 mg/kg/injection, schedule: Q04DX003 (ip), vehicle: saline sonified 98 % of control | endpoint: mean survival time, dose: 50.0 mg/kg/injection, schedule: Q04DX003 (ip), vehicle: saline sonified 93 % of control

Cc1cc(=O)[nH]c(=S)[nH]1
inactive: [7] 98 % of control | [8] 97 % of control | [9] 95 % of control | [10] 97 % of control | [11] 88 % of control

O=C(O)CCCCCCCC(=O)O
inactive: endpoint: median survival time, dose: 6.25 mg/kg/injection, schedule: Q01DX009 (ip), vehicle: distilled water + Tween-80 101 % of control | endpoint: median survival time, dose: 12.5 mg/kg/injection, schedule: Q01DX009 (ip), vehicle: distilled water + Tween-80 95 % of control | endpoint: median survival time, dose: 25.0 mg/kg/injection, schedule: Q01DX009 (ip), vehicle: distilled water + Tween-80 101 % of control | endpoint: median survival time, dose: 50.0 mg/kg/injection, schedule: Q01DX009 (ip), vehicle: distilled water + Tween-80 89 % of control | endpoint: median survival time, dose: 100.0 mg/kg/injection, schedule: Q01DX009 (ip), vehicle: distilled water + Tween-80 97 % of control

N=C(N)c1ccc(OCCCCOc2ccc(NC(=O)Nc3cc(S(=O)(=O)F)ccc3Cl)cc2)cc1
inactive: endpoint: mean survival time, dose: 75.0 mg/kg/injection, schedule: Q01DX001 (ip), vehicle: saline with Tween-80 95 % of control | endpoint: mean survival time, dose: 150.0 mg/kg/injection, schedule: Q01DX001 (ip), vehicle: saline with Tween-80 90 % of control | endpoint: mean survival time, dose: 300.0 mg/kg/injection, schedule: Q01DX001 (ip), vehicle: saline with Tween-80 95 % of control

CSc1nc(N)c2c(n1)nc(N(C)C)n2O
inactive: endpoint: mean survival time, dose: 12.5 mg/kg/injection, schedule: Q01DX005 (ip), vehicle: water 106 % of control | endpoint: mean survival time, dose: 25.0 mg/kg/injection, schedule: Q01DX005 (ip), vehicle: water 102 % of control | endpoint: mean survival time, dose: 50.0 mg/kg/injection, schedule: Q01DX005 (ip), vehicle: water 93 % of control | endpoint: mean survival time, dose: 100.0 mg/kg/injection, schedule: Q01DX005 (ip), vehicle: water 95 % of control | endpoint: mean survival time, dose: 200.0 mg/kg/injection, schedule: Q01DX005 (ip), vehicle: water 97 % of control

CN(C)c1ccc2c(c1)Oc1cc(N(C)C)ccc1C21OC(=O)c2ccccc21
inactive: [7] 97 % of control | [9] 101 % of control | [11] 97 % of control

CC(C)OC(=O)Nc1nc2ccccc2s1
inactive: [8] 92 % of control | [10] 95 % of control | endpoint: mean survival time, dose: 400.0 mg/kg/injection, schedule: Q04DX002 (ip), vehicle: saline with Tween-80 92 % of control

COC1=CC=C2[C@@H]3Cc4ccc(OC)c5c4[C@]2(CCN3CCCl)C1O5 (stereo not given in full)
inactive: endpoint: mean survival time, dose: 25.0 mg/kg/injection, schedule: Q04DX003 (ip), vehicle: DMSO 107 % of control | endpoint: mean survival time, dose: 50.0 mg/kg/injection, schedule: Q04DX003 (ip), vehicle: DMSO 104 % of control | endpoint: mean survival time, dose: 100.0 mg/kg/injection, schedule: Q04DX003 (ip), vehicle: DMSO 102 % of control

c1ccc(NC2=NCCO2)nc1
inactive: [7] 101 % of control | [9] 100 % of control

S=C(NCc1ccccc1)Nc1ncn[nH]1
inactive: endpoint: mean survival time, dose: 12.5 mg/kg/injection, schedule: Q01DX001 (ip), vehicle: carboxymethylcellulose (CMC) 97 % of control | endpoint: mean survival time, dose: 25.0 mg/kg/injection, schedule: Q01DX001 (ip), vehicle: carboxymethylcellulose (CMC) 89 % of control | endpoint: mean survival time, dose: 50.0 mg/kg/injection, schedule: Q01DX001 (ip), vehicle: carboxymethylcellulose (CMC) 86 % of control | endpoint: mean survival time, dose: 100.0 mg/kg/injection, schedule: Q01DX001 (ip), vehicle: carboxymethylcellulose (CMC) 86 % of control

CC(C)(CCC(=O)O)c1cccc(Cl)c1
inactive: [1] 96 % of control | [2] 93 % of control

N\C([S-])=N/N=C\C(=N/N=C(\N)[S-])C(O)C(O)C(O)CO.[Rh+2] (stereo not given)
inactive: endpoint: mean survival time, dose: 100.0 mg/kg/injection, schedule: Q01DX001 (ip), vehicle: saline 98 % of control | endpoint: mean survival time, dose: 200.0 mg/kg/injection, schedule: Q01DX001 (ip), vehicle: saline 96 % of control | endpoint: mean survival time, dose: 400.0 mg/kg/injection, schedule: Q01DX001 (ip), vehicle: saline 96 % of control

N#C/C(=C\c1ccc(-c2ccccc2)cc1)c1ccccc1
inactive: endpoint: mean survival time, dose: 200.0 mg/kg/injection, schedule: Q04DX003 (ip), vehicle: saline with Tween-80 86 % of control | endpoint: mean survival time, dose: 400.0 mg/kg/injection, schedule: Q04DX003 (ip), vehicle: saline with Tween-80 95 % of control

CCOC(=O)C(=O)C(C#N)c1ccccc1 (stereo not given)
inactive: endpoint: mean survival time, dose: 25.0 mg/kg/injection, schedule: Q01DX001 (ip), vehicle: Klucel (hydroxypropylcellulose) (HPC) 92 % of control | endpoint: mean survival time, dose: 50.0 mg/kg/injection, schedule: Q01DX001 (ip), vehicle: Klucel (hydroxypropylcellulose) (HPC) 100 % of control | endpoint: mean survival time, dose: 100.0 mg/kg/injection, schedule: Q01DX001 (ip), vehicle: Klucel (hydroxypropylcellulose) (HPC) 100 % of control and 106 % of control

COc1cc2c(c(OC)c1OC)-c1c(cc3c(c1OC)OCO3)CC(C)C(C)(O)C2OC(=O)c1ccccc1 (stereo not given)
inactive: endpoint: median survival time, dose: 25.0 mg/kg/injection, schedule: Q01DX009 (ip), vehicle: saline + Tween-80 + alcohol 100 % of control | endpoint: median survival time, dose: 50.0 mg/kg/injection, schedule: Q01DX009 (ip), vehicle: saline + Tween-80 + alcohol 102 % of control | endpoint: median survival time, dose: 100.0 mg/kg/injection, schedule: Q01DX009 (ip), vehicle: saline + Tween-80 + alcohol 107 % of control | endpoint: median survival time, dose: 200.0 mg/kg/injection, schedule: Q01DX009 (ip), vehicle: saline + Tween-80 + alcohol 102 % of control | endpoint: median survival time, dose: 400.0 mg/kg/injection, schedule: Q01DX009 (ip), vehicle: saline + Tween-80 + alcohol 98 % of control

COC1OC(CO)C2OC(=O)NC2C1O (stereo not given)
inactive: [12] 98 % of control | [13] 94 % of control | endpoint: mean survival time, dose: 400.0 mg/kg/injection, schedule: Q04DX003 (ip), vehicle: saline 100 % of control

COc1cc(C=O)ccc1OC1OC(C(COC(C)=O)OC(C)=O)C(OC(C)=O)C(OC(C)=O)C1OC(C)=O (stereo not given)
inactive: endpoint: mean survival time, dose: 50.0 mg/kg/injection, schedule: Q01DX001 (ip), vehicle: saline with Tween-80 93 % of control | [7] 88 % of control | [9] 88 % of control

CC(C)CCNCCO
inactive: endpoint: mean survival time, dose: 75.0 mg/kg/injection, schedule: Q01DX001 (ip), vehicle: saline 102 % of control | endpoint: mean survival time, dose: 150.0 mg/kg/injection, schedule: Q01DX001 (ip), vehicle: saline 102 % of control

CSc1nc(NC(C)C)nc(NC(C)C)n1
inactive: [1] 117 % of control | [2] 109 % of control | [12] 92 % of control | [3] 111 % of control | [13] 103 % of control
